Assay results from US20250281456A1, “METHODS OF TREATING CANCER BY INHIBITING BACTERIAL DNAK TO RESTORE ACTIVITIES OF ANTICANCER DRUGS” (University of Maryland, Baltimore, priority 2022, published 2025).
pKd: −log10 of the molar value. Like-named read-outs stand apart in the source and are kept apart here.

Key:
[1] = test system: HCT116 cells; test: HCT116 cell viability (trypan blue) with cisplatin, exogenous DnaKs and DnaK inhibitor (Example 4); assay type: cell-based, human
Experimental: After 24 h, both eM-DnaK and eF-DnaK were added to the cultures at a concentration of 10 ug/ml. […] Parallel cultures of untreated cells were the negative control. […] After 48 h of treatment with the anti-cancer drugs, cell monolayers were washed in PBS, trypsinized and cell viability was measured using the trypan blue assay. The trypan blue exclusion assay allows for a direct identification and enumeration of live (unstained) and dead (blue) cells in the given population.
More in detail, we pre-treated both DnaKs with Telaprevir (25 μg/ml) before adding them to the culture of HCT116 cells. After 3 h of incubation the complex was added to the culture. After 24 h the cells were treated with the anti-cancer drugs and then subjected to count with trypan blue as previously described. Parallel cultures of cells treated with the drugs and DnaKs not complexed with Telaprevir were used as control.

[2] = target: M. tuberculosis DnaK (Mycobacterium tuberculosis, UniProt P9WMJ9); conditions: previously demonstrated; cited from earlier work
[3] = target: Mycoplasma fermentans DnaK-V5, expressed inside cells (codon-optimized DnaK vector transfected into (Mycoplasma fermentans)); test: cell-based or functional assay
[4] = target: Recombinant purified exogenous Mycoplasma fermentans DnaK-V5 protein (eM-DnaK) (Mycoplasma fermentans); test: SPR (BIAcore T100), eM-DnaK immobilized on CM5 chip (2274.9 RU), ARV-1502 as analyte
[5] = test system: AGS cells; test: cells; conditions: Homo sapiens, 48 h
Experimental: (§1) FIG. 11. […] Parallel wells of untreated cells were used as negative control. Cell viability was assessed by using the trypan blue assay. Percentage of alive cells for each treatment are calculated as percentage using the untreated cell as reference. […] Statistical differences were tested using Student's t test. All statistical tests were two sided. p=***<0.001, **<0.01, *<0.05, ns=not significant.
as §1, with “14.” for “11.”, “p=*<0.05,” for “p=***<0.001,”, “***<0.001.” for “*<0.05, ns=not significant.”
(§2) To determine the effects of eM and eF-DnaKs on HCT116 and AGS cells lines treated with different anti-cancer drugs, cells were plated 200,000 cells/well in 6-wells plates. After 24 h, both eM-DnaK and eF-DnaK were added to the cultures at a concentration of 10 ug/ml. […] Parallel cultures of untreated cells were the negative controls. […] After 48 h of treatment with the anti-cancer drugs, cell monolayers were washed in PBS, trypsinized and cell viability was measured using the trypan blue assay. The trypan blue exclusion assay allows for a direct identification and enumeration of live (unstained) and dead (blue) cells in the given population.
(§3) More in detail, we pre-treated both exogenous DnaKs with ARV-1502 (25 μg/ml) before adding them to the culture of HCT116 or AGS cells. After 3 h of incubation the complex was added to the culture. After 24 h the cells were treated with the anti-cancer drugs and then subjected to count with trypan blue as previously described. Parallel cultures of cells treated with the drugs and DnaKs not complexed with ARV-1502 were used as control.

[6] = test system: HCT116 cells; test: cells; conditions: Homo sapiens, HCT-116, 48 h, 48 h
Experimental: as §1
as §1, with “14.” for “11.”, “p=*<0.05,” for “p=***<0.001,”, “***<0.001.” for “*<0.05, ns=not significant.”
as §2, §3

[7] = test system: HCT116 cells infected with Mycoplasma; test: Cell viability of Mycoplasma-infected HCT116 cells (LIVE/DEAD kit); assay type: cell-based, human; conditions: 5FU or Nutlin-3, 48 hours
Experimental: FIG. 2. DnaK negatively affects p53 activities and Mycoplasma infection reduces the effect of anti-cancer drugs. (A) DnaK reduces p53-associated activities in HCT116 cells. Levels of p53, p21, Bax and PUMA proteins were analyzed in control, vector and DnaK transfected cells at different time-points (2, 8 and 16 hours). Expression of DnaK was verified using the anti-V5 antibody. NT: not transfected; VT: vector transfected; DnaK: DnaK transfected; M: media; D: DMSO; N: Nutlin. β-act: β-actin. Band intensity was measured by densitometric analysis. Numbers above bands indicate fold increase above level of nutlin-treated DnaK-transfected cells, normalized for the levels of β-actin. (B) DnaK increases cell cycle progression. HCT116 cells were transfected with a DnaK-expressing vector and subsequently analyzed for cell cycle progression. Data were collected 16-24 hours after transfection. Results represent mean and standard deviations of 5 different experiments. […] Results are expressed as percent cell viability over control (uninfected cells in media alone were considered as 100%). Mean difference is shown. *=p<0.001—calculated using Poisson regression.
HCT116 cells (colon carcinoma cell line) were obtained from ATCC. […] In all experiments cell viability was calculated as a percentage relative to the control cultures. […]

[8] = test system: primary murine cancer cells constitutively expressing DnaK; test: cells; conditions: Mus musculus, read-out: cell viability

CCC[C@H](NC(=O)[C@@H]1[C@H]2CCC[C@H]2CN1C(=O)[C@@H](NC(=O)[C@@H](NC(=O)c1cnccn1)C1CCCCC1)C(C)(C)C)C(=O)C(=O)NC1CC1 [Telaprevir, (3S,3aS,6aR)-2-[(2S)-2-[[(2S)-2-cyclohexyl-2-(pyrazine-2-carbonylamino)acetyl]amino]-3,3-dimethylbutanoyl]-N-[(3S)-1-(cyclopropylamino)-1,2-dioxohexan-3-yl]-3,3a,4,5,6,6a-hexahydro-1H-cyclopenta[c]pyrrole-3-carboxamide]
restoration of cisplatin anti-cancer activity ([1]; HCT116, cisplatin in the presence of eM-DnaK or eF-DnaK pre-treated with Telaprevir (25 μg/ml)): restoration of the original anti-cancer activity
DnaK binding and ATPase activity [2]: bind to M. tuberculosis DnaK substrate-binding domain and to reduce its ATPase activity

N.N.[Cl][Pt][Cl] [cisplatin]
blunting of the anti-cancer effect of the drug ([1]; HCT116, cisplatin in the presence of eM-DnaK or eF-DnaK): 40-50%

COc1cc(C(=O)NS(=O)(=O)c2ccccc2C)ccc1Cc1cn(C)c2ccc(NC(=O)OC3CCCC3)cc12 [Zafirlukast, zafirlukast]
restoration of cisplatin anticancer activity ([1]; HCT116, cisplatin in the presence of DnaK from M. fermentans and F. nucleatum (FIG. 9)): restores anticancer activity of cisplatin

ARV-1502 (peptide)
cell viability of DnaK-expressing primary murine cancer cells, 5FU plus ARV-1502 [3]: 40%
pKd [4]: 5.72

O=c1[nH]cc(F)c(=O)[nH]1 [5FU, 5-Fluorouracil]
viability at 75 µM ([5]; read-out: cell viability, AGS, drug alone (eF-DnaK experiment), Cisplatin 2 μM or 5FU 75 μM, 48 h, % of untreated cells): 31%
viability at 75 µM ([5]; read-out: cell viability, AGS, drug alone (eM-DnaK experiment), Cisplatin 25 μM or 5FU 75 μM, 48 h, % of untreated cells): 15%
viability at 75 µM ([5]; read-out: cell viability, AGS, drug in the presence of eF-DnaK (10 ug/ml), Cisplatin 2 μM or 5FU 75 μM, 48 h): 42%
viability at 75 µM ([5]; read-out: cell viability, AGS, drug in the presence of eM-DnaK (10 ug/ml), Cisplatin 25 μM or 5FU 75 μM, 48 h): 33%
viability at 75 µM ([6]; read-out: cell viability, HCT116, drug alone (eF-DnaK experiment), Cisplatin 2 μM or 5FU 75 μM, % of untreated cells): 14%
viability at 75 µM ([6]; read-out: cell viability, HCT116, drug alone (eM-DnaK experiment), Cisplatin 25 μM or 5FU 75 μM, % of untreated cells): 14%
viability at 75 µM ([6]; read-out: cell viability, HCT116, drug in the presence of eF-DnaK (10 ug/ml), Cisplatin 2 μM or 5FU 75 μM): 17%
viability at 75 µM ([6]; read-out: cell viability, HCT116, drug in the presence of eM-DnaK (10 ug/ml), Cisplatin 25 μM or 5FU 75 μM): 16%
effect of Mycoplasma infection on drug activity (cell viability) [7]: resistance to these anti-cancer drugs
viability at 75 µM [8]: 55%

COc1ccc(C2=N[C@@H](c3ccc(Cl)cc3)[C@@H](c3ccc(Cl)cc3)N2C(=O)N2CCNC(=O)C2)c(OC(C)C)c1 [Nutlin, Nutlin-3]
effect of Mycoplasma infection on drug activity (cell viability) [7]: resistance to these anti-cancer drugs
